Measurements reported in ChEMBL document CHEMBL5385847, “Design, synthesis and biological evaluation of a new class of 7H-pyrrolo[2,3-d]pyrimidine derivatives as Mps1 inhibitors for the treatment of breast cancer” (Eur J Med Chem, 2023).
Calls of active or inactive are those of the source. The rule behind the calls is not given here.

Experiments:
4T1 [1] = test: Induction of apoptosis in 4T1 cells assessed as early apoptotic cells at 0.5 uM incubated for 48 hrs by Annexin V-FITC/PI staining based flow cytometry (reference value: 0.32 %); format: functional, Mus musculus
[2] = molecular target: ALK tyrosine kinase receptor (Homo sapiens) (UniProt Q9UM73); test: Inhibition of human ALK at 0.1 uM by KINOMEscan assay relative to control
MCF7 [3] = test: Antiproliferative activity against human MCF7 cells assessed as inhibition of cell viability incubated for 24 to 72 hrs by MTT assay; format: functional, cell-based; details: dose <= 10.0 µM, time 24-72 hrs
[4] = Toxicity in BALB/C mouse xenografted with mouse 4T1-Luc cells assessed as change in blood biochemical parameters at 30 to 60 mg/kg, po qd treated for 15 days; format: organism-based; details: in vivo, 360 h, dose 30-60 mg/kg, time 15 day
[5] = molecular target: Tyrosine-protein kinase JAK2 (Homo sapiens) (UniProt O60674); test: Inhibition of human JAK2 at 1 uM by KINOMEscan assay relative to control
AGS = test: Antiproliferative activity against human AGS cells assessed as inhibition of cell viability by MTT assay; format: functional, cell-based
[6] = Toxicity in BALB/C mouse xenografted with mouse 4T1-Luc cells assessed as histological change in lung at 30 to 60 mg/kg, po qd treated for 15 days by H and E staining based analysis; format: organism-based; details: in vivo, 360 h, dose 30-60 mg/kg, time 15 day
4T1 [7] = test: Antiproliferative activity against 4T1 cells upto 5 uM measured after 14 days by colony formation assay; format: functional, cell-based; details: Mus musculus, time 14.0 day
4T1-Luc = test: Antitumor activity against mouse 4T1-Luc cells xenografted in BALB/C mouse assessed as reduction in tumor growth at 30 to 60 mg/kg, po qd measured after 10 days by IVIS analysis; format: functional, organism-based; details: dose 30-60 mg/kg, time 10.0 day
4T1 [8] = test: Induction of DNA damage in 4T1 cells assessed as increase in gamma-H2AX level incubated for 2 hrs by Western blot analysis; format: functional, cell-based; details: Mus musculus, dose <= 3.0 µM
MCF7 [9] = test: Antiproliferative activity against human MCF7 cells assessed as inhibition of cell viability upto 10 uM by MTT assay; format: functional, cell-based; details: time 24-72 hrs, TDE = time-dependent effect
[10] = molecular target: Tyrosine-protein kinase Yes (Homo sapiens) (UniProt P07947); test: Inhibition of human Yes at 0.1 uM by KINOMEscan assay relative to control
[11] = molecular target: Hepatocyte growth factor receptor (Homo sapiens) (UniProt P08581); test: Inhibition of human Met at 0.1 uM by KINOMEscan assay relative to control
[12] = molecular target: Angiopoietin-1 receptor (Homo sapiens) (UniProt Q02763); test: Inhibition of human Tie2 at 1 uM by KINOMEscan assay relative to control
[13] = molecular target: Tyrosine-protein kinase Yes (Homo sapiens) (UniProt P07947); test: Inhibition of human Yes at 1 uM by KINOMEscan assay relative to control
[14] = Toxicity in BALB/C mouse xenografted with mouse 4T1-Luc cells assessed as body weight change at 30 to 60 mg/kg, po qd treated for 15 days; format: organism-based; details: in vivo, 360 h, dose 30-60 mg/kg, time 15 day
[15] = molecular target: T1, Dual specificity protein kinase TTK (Homo sapiens) (UniProt P33981); test: Inhibition of human Mps1 at 1 uM by KINOMEscan assay relative to control
T1 sequence (whole entry): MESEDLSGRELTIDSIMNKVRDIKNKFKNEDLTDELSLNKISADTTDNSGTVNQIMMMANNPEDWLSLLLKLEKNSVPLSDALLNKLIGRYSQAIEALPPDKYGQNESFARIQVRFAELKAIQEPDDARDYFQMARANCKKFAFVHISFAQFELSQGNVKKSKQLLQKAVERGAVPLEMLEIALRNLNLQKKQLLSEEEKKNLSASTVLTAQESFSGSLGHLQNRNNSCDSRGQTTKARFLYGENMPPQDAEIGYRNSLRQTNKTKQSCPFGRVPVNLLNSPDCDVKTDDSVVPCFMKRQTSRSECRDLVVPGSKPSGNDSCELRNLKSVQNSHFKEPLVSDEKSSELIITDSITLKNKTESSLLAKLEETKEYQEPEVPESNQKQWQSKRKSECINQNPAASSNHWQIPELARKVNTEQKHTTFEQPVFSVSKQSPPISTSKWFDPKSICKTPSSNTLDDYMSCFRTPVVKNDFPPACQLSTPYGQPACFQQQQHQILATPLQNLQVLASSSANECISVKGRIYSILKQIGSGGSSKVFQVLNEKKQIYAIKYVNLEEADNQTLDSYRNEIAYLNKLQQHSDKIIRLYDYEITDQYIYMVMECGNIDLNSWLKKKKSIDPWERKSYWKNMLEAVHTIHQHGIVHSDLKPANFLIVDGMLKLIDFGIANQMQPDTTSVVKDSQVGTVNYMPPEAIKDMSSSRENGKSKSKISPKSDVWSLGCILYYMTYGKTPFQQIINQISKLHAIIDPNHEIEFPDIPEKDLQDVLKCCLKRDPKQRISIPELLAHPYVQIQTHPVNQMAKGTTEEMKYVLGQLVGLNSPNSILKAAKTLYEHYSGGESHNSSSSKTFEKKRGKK

[16] = molecular target: Insulin-like growth factor 1 receptor (Homo sapiens) (UniProt P08069); test: Inhibition of human IGF-1R at 0.1 uM by KINOMEscan assay relative to control
[17] = molecular target: Angiopoietin-1 receptor (Homo sapiens) (UniProt Q02763); test: Inhibition of human Tie2 at 0.1 uM by KINOMEscan assay relative to control
4T1 [18] = test: Induction of apoptosis in 4T1 cells assessed as late apoptotic cells at 1 uM incubated for 48 hrs by Annexin V-FITC/PI staining based flow cytometry (reference value: 1.73 %); format: functional, Mus musculus
Vero = test: Antiproliferative activity against African green monkey Vero cells assessed as inhibition of cell viability by MTT assay; format: toxicity, cell-based; details: chlorocebus sabaeus
[19] = molecular target: T2, Dual specificity protein kinase TTK (Homo sapiens, UniProt P33981); test: Inhibition of Mps1 (unknown origin) incubated for 120 mins in presence of substrate/ATP by ADP-Glo assay
T2 sequence (P33981 whole entry): T1 sequence (whole entry)

MCF7 [20] = test: Induction of cell cycle arrest in human MCF7 cells at G2/M phase assessed as decrease in cyclin B1 level incubated for 24 hrs by Western blot analysis; format: functional, cell-based; details: dose <= 3.0 µM
HEY = test: Antiproliferative activity against human HEY cells assessed as inhibition of cell viability by MTT assay; format: functional, cell-based
4T1 [21] = test: Induction of apoptosis in 4T1 cells assessed as increase in cleaved caspase-3 level upto 3 uM incubated for 48 hrs by Western blot analysis; format: functional, cell-based; details: Mus musculus
[22] = system: Tyrosine-protein kinase ABL1 (Homo sapiens), P00519 [T315I]; test: Inhibition of human Abl T315I mutant at 1 uM by KINOMEscan assay relative to control
[23] = molecular target: Cytoplasmic tyrosine-protein kinase BMX (Homo sapiens) (UniProt P51813); test: Inhibition of human Bmx at 0.1 uM by KINOMEscan assay relative to control
MCF7 [24] = test: Induction of apoptosis in human MCF7 cells assessed as early apoptotic cells at 0.5 uM incubated for 48 hrs by Annexin V-FITC/PI staining based flow cytometry (reference value: 1.19 %); format: functional

Chain of Angiopoietin-1 receptor (Homo sapiens) (Q02763 whole entry): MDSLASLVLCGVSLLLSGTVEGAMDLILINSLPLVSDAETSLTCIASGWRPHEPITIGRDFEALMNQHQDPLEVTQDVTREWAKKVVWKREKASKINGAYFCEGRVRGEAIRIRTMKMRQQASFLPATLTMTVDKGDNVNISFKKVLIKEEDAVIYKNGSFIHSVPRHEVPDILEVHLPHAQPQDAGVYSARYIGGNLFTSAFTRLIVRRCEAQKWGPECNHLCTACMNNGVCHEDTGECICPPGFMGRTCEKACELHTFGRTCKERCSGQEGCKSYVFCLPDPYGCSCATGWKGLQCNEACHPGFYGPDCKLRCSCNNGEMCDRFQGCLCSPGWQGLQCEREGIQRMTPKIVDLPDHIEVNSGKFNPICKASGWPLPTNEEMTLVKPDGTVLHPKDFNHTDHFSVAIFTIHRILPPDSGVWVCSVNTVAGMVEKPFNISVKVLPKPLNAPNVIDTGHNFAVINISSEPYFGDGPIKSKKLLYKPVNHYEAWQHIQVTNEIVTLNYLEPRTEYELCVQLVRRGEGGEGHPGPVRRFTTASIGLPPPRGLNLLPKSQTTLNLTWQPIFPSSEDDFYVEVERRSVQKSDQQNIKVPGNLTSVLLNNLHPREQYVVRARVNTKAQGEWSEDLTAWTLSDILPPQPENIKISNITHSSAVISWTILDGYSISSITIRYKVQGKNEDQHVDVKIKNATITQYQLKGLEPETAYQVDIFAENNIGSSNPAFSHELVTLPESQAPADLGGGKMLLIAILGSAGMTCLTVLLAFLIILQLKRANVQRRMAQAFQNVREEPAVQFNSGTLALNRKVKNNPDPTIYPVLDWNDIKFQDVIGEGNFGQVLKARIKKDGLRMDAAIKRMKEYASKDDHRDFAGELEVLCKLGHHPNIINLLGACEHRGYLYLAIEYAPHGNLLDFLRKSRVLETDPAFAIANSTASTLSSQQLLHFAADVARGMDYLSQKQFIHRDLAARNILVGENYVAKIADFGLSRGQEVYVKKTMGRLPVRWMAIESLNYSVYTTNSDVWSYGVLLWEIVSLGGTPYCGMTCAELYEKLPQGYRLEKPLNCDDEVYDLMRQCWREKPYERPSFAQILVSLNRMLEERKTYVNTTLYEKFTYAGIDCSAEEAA
Chain of Tyrosine-protein kinase Yes (Homo sapiens) (P07947 2-543 limits assumed): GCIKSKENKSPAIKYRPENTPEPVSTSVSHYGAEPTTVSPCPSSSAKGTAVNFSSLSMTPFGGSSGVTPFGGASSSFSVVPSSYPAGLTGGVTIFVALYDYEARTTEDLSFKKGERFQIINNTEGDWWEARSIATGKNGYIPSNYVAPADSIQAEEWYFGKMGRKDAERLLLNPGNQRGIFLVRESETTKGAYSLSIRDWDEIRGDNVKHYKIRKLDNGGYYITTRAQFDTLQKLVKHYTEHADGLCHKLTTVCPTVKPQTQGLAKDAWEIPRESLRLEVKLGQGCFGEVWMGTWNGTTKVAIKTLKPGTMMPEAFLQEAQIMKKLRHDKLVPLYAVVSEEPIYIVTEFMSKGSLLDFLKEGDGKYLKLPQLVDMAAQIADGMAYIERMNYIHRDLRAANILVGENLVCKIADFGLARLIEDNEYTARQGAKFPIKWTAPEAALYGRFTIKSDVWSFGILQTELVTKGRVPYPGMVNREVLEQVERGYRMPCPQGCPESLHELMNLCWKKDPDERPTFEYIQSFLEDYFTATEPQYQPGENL
Chain of Hepatocyte growth factor receptor (Homo sapiens) (P08581 whole entry): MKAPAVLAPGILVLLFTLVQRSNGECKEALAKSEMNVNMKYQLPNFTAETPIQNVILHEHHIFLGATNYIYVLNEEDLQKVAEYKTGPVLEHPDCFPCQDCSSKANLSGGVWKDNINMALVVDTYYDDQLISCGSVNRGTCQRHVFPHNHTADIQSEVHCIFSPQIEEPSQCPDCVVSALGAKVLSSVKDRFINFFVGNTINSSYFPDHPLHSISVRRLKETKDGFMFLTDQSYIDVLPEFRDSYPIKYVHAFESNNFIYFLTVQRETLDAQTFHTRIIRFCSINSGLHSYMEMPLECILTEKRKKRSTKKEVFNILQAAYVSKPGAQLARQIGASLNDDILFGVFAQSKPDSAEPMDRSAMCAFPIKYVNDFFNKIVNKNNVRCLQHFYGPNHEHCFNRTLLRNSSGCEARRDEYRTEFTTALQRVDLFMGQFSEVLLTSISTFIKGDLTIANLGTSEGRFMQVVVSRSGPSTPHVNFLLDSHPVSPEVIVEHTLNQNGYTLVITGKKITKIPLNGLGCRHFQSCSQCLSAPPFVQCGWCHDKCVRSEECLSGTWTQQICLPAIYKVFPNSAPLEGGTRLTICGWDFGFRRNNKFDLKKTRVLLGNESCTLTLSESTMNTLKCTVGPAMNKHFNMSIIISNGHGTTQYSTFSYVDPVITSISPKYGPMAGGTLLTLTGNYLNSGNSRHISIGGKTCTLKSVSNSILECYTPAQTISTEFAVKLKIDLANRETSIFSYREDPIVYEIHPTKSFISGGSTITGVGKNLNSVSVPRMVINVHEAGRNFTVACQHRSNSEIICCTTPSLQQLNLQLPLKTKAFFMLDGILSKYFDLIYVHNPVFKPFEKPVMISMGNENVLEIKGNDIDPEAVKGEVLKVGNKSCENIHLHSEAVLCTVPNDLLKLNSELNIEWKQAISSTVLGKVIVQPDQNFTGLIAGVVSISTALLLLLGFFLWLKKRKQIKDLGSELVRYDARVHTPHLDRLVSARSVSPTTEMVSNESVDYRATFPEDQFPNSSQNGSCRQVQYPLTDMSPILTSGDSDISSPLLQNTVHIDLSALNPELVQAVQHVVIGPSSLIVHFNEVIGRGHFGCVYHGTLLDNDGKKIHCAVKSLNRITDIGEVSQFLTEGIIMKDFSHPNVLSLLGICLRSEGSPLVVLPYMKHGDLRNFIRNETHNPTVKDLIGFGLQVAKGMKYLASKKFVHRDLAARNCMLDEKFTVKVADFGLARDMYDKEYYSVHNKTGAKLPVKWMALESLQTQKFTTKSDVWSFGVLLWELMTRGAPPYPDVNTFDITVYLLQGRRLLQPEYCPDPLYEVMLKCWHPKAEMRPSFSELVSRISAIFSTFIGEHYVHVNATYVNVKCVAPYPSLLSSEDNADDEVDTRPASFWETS
Chain of Insulin-like growth factor 1 receptor (Homo sapiens) (P08069 31-736 limits assumed): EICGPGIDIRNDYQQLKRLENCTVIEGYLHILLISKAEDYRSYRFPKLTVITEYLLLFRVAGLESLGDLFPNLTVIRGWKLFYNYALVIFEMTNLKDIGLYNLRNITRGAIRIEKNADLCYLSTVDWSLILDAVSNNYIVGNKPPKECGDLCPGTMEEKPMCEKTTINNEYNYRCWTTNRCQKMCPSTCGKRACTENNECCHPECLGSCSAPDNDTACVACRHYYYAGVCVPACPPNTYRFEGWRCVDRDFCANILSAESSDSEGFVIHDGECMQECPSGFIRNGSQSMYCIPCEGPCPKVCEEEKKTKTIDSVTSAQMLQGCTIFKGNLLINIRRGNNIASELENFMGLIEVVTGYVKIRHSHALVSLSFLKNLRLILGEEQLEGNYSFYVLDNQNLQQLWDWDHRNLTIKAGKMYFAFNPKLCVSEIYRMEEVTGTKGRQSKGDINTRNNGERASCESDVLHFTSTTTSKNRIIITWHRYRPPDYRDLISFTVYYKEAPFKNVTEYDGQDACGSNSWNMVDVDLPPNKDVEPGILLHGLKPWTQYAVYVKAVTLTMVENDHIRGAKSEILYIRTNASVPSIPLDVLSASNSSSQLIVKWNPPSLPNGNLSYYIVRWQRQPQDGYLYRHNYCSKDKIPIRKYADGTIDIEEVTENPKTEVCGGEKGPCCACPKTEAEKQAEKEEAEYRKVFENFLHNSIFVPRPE
Chain of Insulin-like growth factor 1 receptor (Homo sapiens) (P08069 741-1367 limits assumed): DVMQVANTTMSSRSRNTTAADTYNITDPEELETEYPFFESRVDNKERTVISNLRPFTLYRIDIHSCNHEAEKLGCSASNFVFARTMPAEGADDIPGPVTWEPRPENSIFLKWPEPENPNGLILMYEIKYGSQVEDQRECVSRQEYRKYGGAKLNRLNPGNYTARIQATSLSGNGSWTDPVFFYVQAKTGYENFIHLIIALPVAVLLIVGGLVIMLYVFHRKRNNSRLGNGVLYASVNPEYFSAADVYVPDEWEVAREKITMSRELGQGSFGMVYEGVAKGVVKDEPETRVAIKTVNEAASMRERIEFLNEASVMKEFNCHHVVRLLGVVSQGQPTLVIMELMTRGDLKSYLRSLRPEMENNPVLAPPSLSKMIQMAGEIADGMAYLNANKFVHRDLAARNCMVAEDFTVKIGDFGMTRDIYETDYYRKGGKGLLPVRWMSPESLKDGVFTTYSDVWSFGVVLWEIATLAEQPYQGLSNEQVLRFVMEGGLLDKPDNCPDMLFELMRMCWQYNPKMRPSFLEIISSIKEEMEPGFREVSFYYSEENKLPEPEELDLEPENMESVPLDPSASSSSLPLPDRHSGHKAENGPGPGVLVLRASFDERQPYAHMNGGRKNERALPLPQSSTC
Chain of Cytoplasmic tyrosine-protein kinase BMX (Homo sapiens) (P51813 whole entry): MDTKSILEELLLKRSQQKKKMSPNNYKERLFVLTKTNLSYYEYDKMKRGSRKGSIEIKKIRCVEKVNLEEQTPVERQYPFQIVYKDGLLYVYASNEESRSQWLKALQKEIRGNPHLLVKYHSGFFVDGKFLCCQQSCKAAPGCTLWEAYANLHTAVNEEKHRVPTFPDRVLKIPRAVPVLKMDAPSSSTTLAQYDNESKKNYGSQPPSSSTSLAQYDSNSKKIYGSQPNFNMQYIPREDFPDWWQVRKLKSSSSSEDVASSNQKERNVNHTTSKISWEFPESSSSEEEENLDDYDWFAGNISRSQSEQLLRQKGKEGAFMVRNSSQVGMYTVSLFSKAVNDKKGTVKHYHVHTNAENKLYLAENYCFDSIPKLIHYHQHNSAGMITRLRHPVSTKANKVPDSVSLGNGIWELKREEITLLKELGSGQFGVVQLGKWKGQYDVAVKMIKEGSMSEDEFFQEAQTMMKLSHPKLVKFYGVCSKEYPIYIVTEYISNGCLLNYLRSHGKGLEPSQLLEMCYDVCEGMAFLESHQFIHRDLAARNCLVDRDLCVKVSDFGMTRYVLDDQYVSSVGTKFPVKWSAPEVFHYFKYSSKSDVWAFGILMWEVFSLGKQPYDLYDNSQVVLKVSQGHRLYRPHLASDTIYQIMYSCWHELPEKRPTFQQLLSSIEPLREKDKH

inhibition [2]: 86%
inhibition [5]: 95%
IC50 (AGS): > 3000 nM
inhibition [10]: 80%
inhibition [11]: 53%
inhibition [12]: 92%
inhibition [13]: 100%
inhibition [15]: > 90%
inhibition [16]: 43%
inhibition [17]: 28%
IC50 [19]: 29 nM
inhibition [22]: 100%
inhibition [23]: 55%
Structure (SMILES): CN1CCN(c2ccc(Nc3nc(-n4nc(N)c5ccccc54)c4cc[nH]c4n3)cc2)CC1
Activity (4T1 [1]): 1.17%
inhibition (MCF7 [3]): Dose-Dependent Effect
Activity [4]: Non-Toxic
Activity [6]: Non-Toxic
Activity (4T1 [7]): Active
Activity (4T1-Luc): Active
Activity (4T1 [8]): Dose-Dependent Effect
inhibition (MCF7 [9]): Tde
Activity [14]: Non-Toxic
Activity (4T1 [18]): 5.58%
Activity (Vero): Non-Toxic
Activity (MCF7 [20]): Dose-Dependent Effect
IC50 (HEY): > 3000 nM
Activity (4T1 [21]): Active
Activity (MCF7 [24]): 6.55%
